Each molecule was assayed against T1, N-terminally GST-tagged human full length recombinant Mps-1 kinase (Homo sapiens, UniProt P33981) (assay: Mps-1 kinase assay (TR-FRET)). Conditions: Mps1 IC50 [nM], 10 μM ATP, 1 μM peptide substrate, 60 min at 22° C.
T1 construct: N-terminally GST-tagged human full length recombinant Mps-1 kinase; purchased Invitrogen, Karslruhe, Germany PV4071
T1 sequence (P33981 1-857): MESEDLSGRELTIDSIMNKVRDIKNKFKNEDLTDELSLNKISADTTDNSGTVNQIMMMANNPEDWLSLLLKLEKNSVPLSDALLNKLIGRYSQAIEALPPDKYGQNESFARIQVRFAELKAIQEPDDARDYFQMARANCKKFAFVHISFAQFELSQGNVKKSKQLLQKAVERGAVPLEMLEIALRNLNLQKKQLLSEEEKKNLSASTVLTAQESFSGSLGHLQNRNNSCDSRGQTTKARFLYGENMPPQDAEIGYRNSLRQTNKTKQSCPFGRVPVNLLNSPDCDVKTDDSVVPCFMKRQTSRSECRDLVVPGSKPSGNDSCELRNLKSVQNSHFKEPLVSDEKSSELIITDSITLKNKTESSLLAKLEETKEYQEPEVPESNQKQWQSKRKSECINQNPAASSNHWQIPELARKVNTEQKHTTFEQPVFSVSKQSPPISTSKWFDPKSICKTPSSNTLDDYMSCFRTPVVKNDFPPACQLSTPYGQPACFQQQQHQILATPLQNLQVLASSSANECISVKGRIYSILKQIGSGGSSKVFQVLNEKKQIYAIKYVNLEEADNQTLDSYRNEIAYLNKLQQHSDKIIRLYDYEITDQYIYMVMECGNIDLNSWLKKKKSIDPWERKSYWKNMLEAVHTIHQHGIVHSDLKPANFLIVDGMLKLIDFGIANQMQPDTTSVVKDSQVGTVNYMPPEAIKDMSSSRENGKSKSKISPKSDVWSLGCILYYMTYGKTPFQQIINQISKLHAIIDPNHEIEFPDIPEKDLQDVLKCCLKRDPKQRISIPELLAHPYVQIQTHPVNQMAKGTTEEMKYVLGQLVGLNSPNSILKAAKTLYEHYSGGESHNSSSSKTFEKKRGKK
Assay type: biochemical
How it was run: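 GST-Mps-1 (full length, N-term tag) ~1 nM final, linear-range adjusted per lot; biotinylated peptide substrate. Detection: Eu-anti-pSer/Thr donor → SA-XLent acceptor TR-FRET, 1 h, 22° C. Inhibition of kinase activity.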

| Structure (SMILES) | IC50 [nM] |
| --- | --- |
| Cc1cc(-c2cnc3c(NCC(C)(C)O)cc(-c4cncc(C#N)c4)nn23)ccc1C(=O)NC1CC1 [Example 234, 4-{6-(5-cyanopyridin-3-yl)-8-[(2-hydroxy-2-methylpropyl)amino]imidazo[1,2-b]pyridazin-3-yl}-N-cyclopropyl-2-methylbenzamide] | 6.1 |
| Cc1cc(-c2cnc3c(NCC(C)(C)O)cc(-c4cc(C(F)(F)F)nn4C)nn23)ccc1C(=O)NC1CC1 [Example 235, N-cyclopropyl-4-{8-[(2-hydroxy-2-methylpropyl)amino]-6-[1-methyl-3-(trifluoromethyl)-1H-pyrazol-5-yl]imidazo[1,2-b]pyridazin-3-yl}-2-methylbenzamide] | 6.2 |
| CSc1cc(NCc2ccnn2C)c2ncc(-c3ccc(C(=O)NC4CC4)c(C)c3)n2n1 [Example 237, N-cyclopropyl-2-methyl-4-[8-{[(1-methyl-1H-pyrazol-5-yl)methyl]amino}-6-(methylsulfanyl)imidazo[1,2-b]pyridazin-3-yl]benzamide] | 5.6 |
| Cc1cc(-c2cnc3c(NCC(C)(C)O)cc(SCCN4CCOCC4)nn23)ccc1C(=O)NC1CC1 [Example 239, N-cyclopropyl-4-(8-[(2-hydroxy-2-methylpropyl)amino]-6-{[2-(morpholin-4-yl)ethyl]sulfanyl}imidazo[1,2-b]pyridazin-3-yl)-2-methylbenzamide] | 25.5 |
| Cc1cc(-c2cnc3c(NCC(C)(C)O)cc(O/C=C(/F)C(F)(F)CO)nn23)ccc1C(=O)NC1CC1 [Example 241B, N-cyclopropyl-4-(8-[(2-hydroxy-2-methylpropyl)amino]-6-{[(1E)-2,3,3-trifluoro-4-hydroxybut-1-en-1-yl]oxy}imidazo[1,2-b]pyridazin-3-yl)-2-methylbenzamide] | 3.4 |
| Cc1cc(-c2cnc3c(NCC(C)(C)O)cc(Sc4ccc(C(F)(F)F)cc4)nn23)ccc1C(=O)NC1CC1 [Example 242, N-cyclopropyl-4-(8-[(2-hydroxy-2-methylpropyl)amino]-6-{[4-(trifluoromethyl)phenyl]sulfanyl}imidazo[1,2-b]pyridazin-3-yl)-2-methylbenzamide] | 3.7 |
| CC(C)(O)CNc1cc(Oc2ccccc2)nn2c(-c3ccc(C(=S)NC4CC4)cc3)cnc12 [Example 243, N-cyclopropyl-4-{8-[(2-hydroxy-2-methylpropyl)amino]-6-phenoxyimidazo[1,2-b]pyridazin-3-yl}benzenecarbothioamide] | 0.9 |
| CC(C)(O)CNc1cc(Sc2ccccc2)nn2c(-c3ccc(C(=S)NC4CC4)cc3)cnc12 [Example 245, N-cyclopropyl-4-{8-[(2-hydroxy-2-methylpropyl)amino]-6-(phenylsulfanyl)imidazo[1,2-b]pyridazin-3-yl}benzenecarbothioamide] | 0.7 |
| CC(C)(O)CNc1cc(Sc2cccc(F)c2)nn2c(-c3ccc(C(=S)NC4CC4)cc3)cnc12 [Example 246, N-cyclopropyl-4-{6-[(3-fluorophenyl)sulfanyl]-8-[(2-hydroxy-2-methylpropyl)amino]imidazo[1,2-b]pyridazin-3-yl}benzenecarbothioamide] | 0.6 |
| Cc1cc(-c2cnc3c(NCCC(F)(F)F)cc(Sc4ccc(C(F)(F)F)cc4)nn23)ccc1C(=O)NC1CC1 [Example 247, N-cyclopropyl-2-methyl-4-(6-{[4-(trifluoromethyl)phenyl]sulfanyl}-8-[(3,3,3-trifluoropropyl)amino]imidazo[1,2-b]pyridazin-3-yl)benzamide] | 1.7 |
| Cc1cc(-c2cnc3c(NCC(C)(C)O)cc(Sc4cc(F)ccc4F)nn23)ccc1C(=O)NC1CC1 [Example 248, N-cyclopropyl-4-{6-[(2,5-difluorophenyl)sulfanyl]-8-[(2-hydroxy-2-methylpropyl)amino]imidazo[1,2-b]pyridazin-3-yl}-2-methylbenzamide] | 0.5 |
| Cc1cc(-c2cnc3c(NCCC(F)(F)F)cc(Oc4ccc(OC(C)C)cc4)nn23)ccc1C(=O)NC1CC1 [Example 257, N-cyclopropyl-4-{6-(4-isopropoxyphenoxy)-8-[(3,3,3-trifluoropropyl)amino]imidazo[1,2-b]pyridazin-3-yl}-2-methylbenzamide] | 0.4 |

Stronger by IC50, values ahead:

| IC50 [nM] | Structure (SMILES) |
| --- | --- |
| < 0.1 | Cc1cc(-c2cnc3c(NCCC(F)(F)F)cc(Sc4cccc(O)c4)nn23)ccc1C(=O)NC1CC1 [Example 238, N-cyclopropyl-4-{6-[(3-hydroxyphenyl)sulfanyl]-8-[(3,3,3-trifluoropropyl)amino]imidazo[1,2-b]pyridazin-3-yl}-2-methylbenzamide] |
| 0.3 | CC(C)(O)CNc1cc(Oc2cccc(F)c2)nn2c(-c3ccc(C(=S)NC4CC4)cc3)cnc12 [Example 244, N-cyclopropyl-4-{6-(3-fluorophenoxy)-8-[(2-hydroxy-2-methylpropyl)amino]imidazo[1,2-b]pyridazin-3-yl}benzenecarbothioamide] |
| 0.2 | Cc1cc(-c2cnc3c(NCCC(F)(F)F)cc(Sc4ccc(F)c(F)c4)nn23)ccc1C(=O)NC1CC1 [Example 249, N-cyclopropyl-4-{6-[(3,4-difluorophenyl)sulfanyl]-8-[(3,3,3-trifluoropropyl)amino]imidazo[1,2-b]pyridazin-3-yl}-2-methylbenzamide] |
| 0.3 | Cc1cc(-c2cnc3c(NCCC(F)(F)F)cc(Sc4ccc(F)cc4)nn23)ccc1C(=O)NC1CC1 [Example 250, N-cyclopropyl-4-{6-[(4-fluorophenyl)sulfanyl]-8-[(3,3,3-trifluoropropyl)amino]imidazo[1,2-b]pyridazin-3-yl}-2-methylbenzamide] |
| 0.2 | Cc1cc(-c2cnc3c(NCCC(F)(F)F)cc(Sc4cc(F)cc(F)c4)nn23)ccc1C(=O)NC1CC1 [Example 251, N-cyclopropyl-4-{6-[(3,5-difluorophenyl)sulfanyl]-8-[(3,3,3-trifluoropropyl)amino]imidazo[1,2-b]pyridazin-3-yl}-2-methylbenzamide] |
| 0.2 | Cc1cc(-c2cnc3c(NCCC(F)(F)F)cc(Sc4cccc(F)c4F)nn23)ccc1C(=O)NC1CC1 [Example 252, N-cyclopropyl-4-{6-[(2,3-difluorophenyl)sulfanyl]-8-[(3,3,3-trifluoropropyl)amino]imidazo[1,2-b]pyridazin-3-yl}-2-methylbenzamide] |
| 0.3 | Cc1cc(-c2cnc3c(NCC(C)(C)O)cc(Oc4ccc(F)cc4)nn23)ccc1C(=O)NC1CC1 [Example 253, N-cyclopropyl-4-{6-(4-fluorophenoxy)-8-[(2-hydroxy-2-methylpropyl)amino]imidazo[1,2-b]pyridazin-3-yl}-2-methylbenzamide] |
| 0.1 | Cc1cc(-c2cnc3c(NCC(C)(C)O)cc(Oc4ccc(F)c(F)c4)nn23)ccc1C(=O)NC1CC1 [Example 254, N-cyclopropyl-4-{6-(3,4-difluorophenoxy)-8-[(2-hydroxy-2-methylpropyl)amino]imidazo[1,2-b]pyridazin-3-yl}-2-methylbenzamide] |
| 0.2 | Cc1cc(-c2cnc3c(NCCC(F)(F)F)cc(Sc4cc(F)ccc4F)nn23)ccc1C(=O)NC1CC1 [Example 255, N-cyclopropyl-4-{6-[(2,5-difluorophenyl)sulfanyl]-8-[(3,3,3-trifluoropropyl)amino]imidazo[1,2-b]pyridazin-3-yl}-2-methylbenzamide] |
| 0.2 | Cc1cc(-c2cnc3c(NCC(C)(C)O)cc(Oc4ccc(OC(C)C)cc4)nn23)ccc1C(=O)NC1CC1 [Example 256, N-cyclopropyl-4-{8-[(2-hydroxy-2-methylpropyl)amino]-6-(4-isopropoxyphenoxy)imidazo[1,2-b]pyridazin-3-yl}-2-methylbenzamide] |
| 0.2 | Cc1cc(-c2cnc3c(NCCC(F)(F)F)cc(Oc4cccc(F)c4F)nn23)ccc1C(=O)NC1CC1 [Example 258, N-cyclopropyl-4-{6-(2,3-difluorophenoxy)-8-[(3,3,3-trifluoropropyl)amino]imidazo[1,2-b]pyridazin-3-yl}-2-methylbenzamide] |
| 0.3 | Cc1ccc(F)c(Oc2cc(NCCC(F)(F)F)c3ncc(-c4ccc(C(=O)NC5CC5)c(C)c4)n3n2)c1 [Example 259, N-cyclopropyl-4-{6-(2-fluoro-5-methylphenoxy)-8-[(3,3,3-trifluoropropyl)amino]imidazo[1,2-b]pyridazin-3-yl}-2-methylbenzamide] |
| 0.2 | Cc1cc(-c2cnc3c(NCCC(F)(F)F)cc(Oc4ccc(F)c(F)c4)nn23)ccc1C(=O)NC1CC1 [Example 260, N-cyclopropyl-4-{6-(3,4-difluorophenoxy)-8-[(3,3,3-trifluoropropyl)amino]imidazo[1,2-b]pyridazin-3-yl}-2-methylbenzamide] |
